Usually inhibition stands for how much of the control response was suppressed.

We go through 9 molecules from patent US20140171431A1, “AZOLE HETEROCYCLIC COMPOUND, PREPARATION METHOD, PHARMACEUTICAL COMPOSITION AND USE” (priority 2011, published 2014).

This experiment has as its target T1, Lp-PLA2 in rabbit serum (Oryctolagus cuniculus, UniProt G1SE06).
T1 construct: from tissue; host or cells: rabbit serum
T1 sequence (G1SE06 22-423): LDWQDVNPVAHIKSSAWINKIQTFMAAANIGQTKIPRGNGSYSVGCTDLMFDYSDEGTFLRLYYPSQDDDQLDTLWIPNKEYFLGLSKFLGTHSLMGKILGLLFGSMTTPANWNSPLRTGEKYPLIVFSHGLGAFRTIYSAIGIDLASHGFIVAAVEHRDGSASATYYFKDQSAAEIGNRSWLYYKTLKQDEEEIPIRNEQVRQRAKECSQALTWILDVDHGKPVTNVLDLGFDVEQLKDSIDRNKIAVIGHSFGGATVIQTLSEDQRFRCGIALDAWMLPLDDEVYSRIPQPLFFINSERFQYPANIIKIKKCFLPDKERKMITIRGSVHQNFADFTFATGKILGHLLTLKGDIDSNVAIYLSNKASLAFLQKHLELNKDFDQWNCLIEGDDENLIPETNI
Description: In vitro inhibitory activity towards the enzyme Lp-PLA2 in rabbit serum, [3H]PAF substrate. The class given is biochemical. The conditions noted are these: rabbit serum; for inhibition at 0.1 µM: 100 nM, read-out: inhibition, %. The procedure:
The activities of compounds were measured using [^3H] labeled platelet activating factor ([^3H]PAF, Perkinelmer, Lot NET910) as the substrate. The reaction was carried out in a system containing 50 mmol/L HEPES and 150 mmol/L NaCl (pH 7.4) in a total volume of 200 μl. First, 10 μL rabbit serum and 10 μl DMSO solution of the test compound were added to the system and preincubated for 10 min at 37° C. Then 20 nM [^3H]PAF was added as listed in table 1 to start the reaction and incubated for a further 10 min at 37° C. After that, 600 μl of CHCl3/MeOH (2:1) was added and the resulting mixture was vortex mixed and the reaction was stopped. After settled for a while, the mixture was centrifugated at 12000×g for 15 min. The supernatant was transferred to a new tube and 200 μl of CHCl3 was added. The mixture was mixed by vortexing and then settled or centrifugated for 2 min. A 100 μl portion of the supernatant was then collected for radioactivity intensity measurement.
The inhibition rate was determined by the following equation:
Inhibitory rate (%)=1−(DPMcompound tube−DPMblank tube)/(DPMcontrol tube−DPMblank tube)*100%
(Note: DPM is radioactivity intensity unit.)

On to `Cc1cnc(Cn2cc(Cc3cnn(C)c3)c(=O)nc2SCc2ccc(F)cc2)n1Cc1ccc(-c2ccc(C(F)(F)F)cc2)cc1` [Example 41, 2-(4-fluorobenzylthio)-1-((5-methyl-1-((4′-(trifluoromethyl)biphenyl-4-yl)methyl)-1H-imidazol-2-yl)methyl)-5-((1-methyl-1H-pyrazol-4-yl)methyl)pyrimidin-4(1H)-one], for which the inhibition at 0.1 µM was found to be 12.6% and 1 µM produced 64.9% inhibition.

Turning to `CCOC(=O)c1cnc(Cn2c(SCc3ccc(F)cc3)nc(=O)c3c2CCC3)n1Cc1ccc(-c2ccc(C(F)(F)F)cc2)cc1` [Example 50, ethyl 2-((2-(4-fluorobenzylthio)-4-oxo-4,5,6,7-tetrahydro-1H-cyclopenta[d]pyrimidin-1-yl)methyl)-1-((4′-(trifluoromethyl)biphenyl-4-yl)methyl)-1H-imidazole-5-carboxylate], the inhibition at 0.1 µM is 57%.

With `O=c1nc(SCc2ccc(F)cc2)n(Cc2nc3ccccc3n2Cc2ccc(-c3ccc(C(F)(F)F)cc3)cc2)c2c1CCC2` [Example 53, 2-(4-fluorobenzylthio)-1-((1-((4′-(trifluoromethyl)biphenyl-4-yl)methyl)-1H-benzo[d]imidazol-2-yl)methyl)-6,7-dihydro-1H-cyclopenta[d]pyrimidin-4(5H)-one], the inhibition at 0.1 µM stood at 43.2% and testing at 1 µM gave an inhibition of 90.1%.

With `Cn1cc(Cc2cn(Cc3nc4ccccc4n3Cc3ccc(-c4ccc(C(F)(F)F)cc4)cc3)c(SCc3ccc(F)cc3)nc2=O)cn1` [Example 54, 2-(4-fluorobenzylthio)-5-((1-methyl-1H-pyrazol-4-yl)methyl)-1-((1-((4′-(trifluoromethyl)biphenyl-4-yl)methyl)-1H-benzo[d]imidazol-2-yl)methyl)pyrimidin-4 (1H)-one], the inhibition at 0.1 µM is 35.9% and testing at 1 µM gave an inhibition of 88.8%.

`CCn1c(Cn2c(SCc3ccc(F)cc3)nc(=O)c3c2CCC3)nnc1-c1ccc(-c2ccc(C(F)(F)F)cc2)cc1` [Example 55, 1-((4-ethyl-5-(4′-(trifluoromethyl)biphenyl-4-yl)-4H-1,2,4-triazol-3-yl)methyl)-2-(4-fluorobenzylthio)-6,7-dihydro-1H-cyclopenta[d]pyrimidin-4(5H)-one] registered an inhibition at 1 µM of 21% and an inhibition at 10 µM of 33.6%.

In turn, `CCn1c(Cn2cc(Cc3cnn(C)c3)c(=O)nc2SCc2ccc(F)cc2)nnc1-c1ccc(-c2ccc(C(F)(F)F)cc2)cc1` [Example 58, 1-((4-ethyl-5-(4′-(trifluoromethyl)biphenyl-4-yl)-4H-1,2,4-triazol-3-yl)methyl)-2-(4-fluorobenzylthio)-5-((1-methyl-1H-pyrazol-4-yl)methyl)pyrimidin-4 (1H)-one] had an inhibition at 1 µM of 32% and an inhibition at 10 µM of 94.8%.

Take `CCn1c(CCCc2ccccc2)nnc1Cn1c(SCc2ccc(F)cc2)nc(=O)c2c1CCC2` [Example 59, 1-((4-ethyl-5-(3-phenylpropyl)-4H-1,2,4-triazol-3-yl)methyl)-2-(4-fluorobenzylthio)-6,7-dihydro-1H-cyclopenta[d]pyrimidin-4(5H)-one]: the inhibition at 10 µM amounted to 9.3%.

Molecule `CCn1c(Cc2ccc(-c3ccc(C(F)(F)F)cc3)cc2)nnc1Cn1c(SCc2ccc(F)cc2)nc(=O)c2c1CCC2` [Example 60, 1-((4-ethyl-5-((4′-(trifluoromethyl)biphenyl-4-yl)methyl)-4H-1,2,4-triazol-3-yl)methyl)-2-(4-fluorobenzylthio)-6,7-dihydro-1H-cyclopenta[d]pyrimidin-4(5H)-one] showed an inhibition at 10 µM of 40%.

In the case of `CC(C)(C(=O)O)N1CCN(Cc2nnc(Cn3c(SCc4ccc(F)cc4)nc(=O)c4c3CCC4)n2Cc2ccc(-c3ccc(C(F)(F)F)cc3)cc2)CC1` [Example 89, 2-(4-((5-((2-(4-fluorobenzylthio)-4-oxo-4,5,6,7-tetrahydro-1H-cyclopenta[d]pyrimidin-1-yl)methyl)-4-((4′-(trifluoromethyl)biphenyl-4-yl)methyl)-4H-1,2,4-triazol-3-yl)methyl)piperazin-1-yl)-2-methylpropanoic acid], the inhibition at 0.1 µM is 13.4%.
